Test results reported in patent US6133264A, “Carbostyril derivatives for inhibiting skin erythema and/or skin pigmentation” (Otsuka Pharmaceutical Co., Ltd., priority 1997, dated 2000).
Where a name gives a salt, the structure may show the parent alone.

Columns and labels:
[1] = tested on: skin erythema (sunburn); assay: Effect for preventing skin sunburn caused by UV rays irradiation (in vivo); parameters: species or system albino guinea pig (Hartley strain, female); details: 3% test compound solution, 24 hours after UV irradiation; for (C): Δa value of test section of skin coated with test compound solution: 10 μl; for inhibition in vivo at 3 %: Cavia porcellus, light or radiation study, topical, 24 h, read-out: Inhibitory ratio of skin erythema (%); for inhibition in vivo at 3 % / Inhibitory ratio of skin erythema (%): {1-[(C)/(D)]}×100
Experimental: (2) Effect for preventing skin sunburn caused by UV rays irradiation (in vivo)
This test is an experimental model of quantitative evaluation of effect for preventing skin sunburn, caused by UV rays irradiation, performed by the test compound. [Test was conducted by a modified method according to the procedures of J. Dermatol. Vol. 17, pp. 595-598, (1990).]
Hairs on the back of an albino guinea pig (Hartley strain, female, age of 7-8 weeks) were shaved by use of an electric hair clipper and an electric shaver. Next day, the guinea pig was fixed on a Bowlman cage, a piece of shading tape (a plaster for patch test) having 4 circular holes of 1.5 cm in diameter was put on the shaved portion of the skin, and predetermined 2 sections of UV rays irradiation. One section (reference section) was coated with 10 μl of a solvent (water or 50% ethanol-water solution). Another section (test section) was coated with 10 μl of 3% test compound solution (aqueous or 50% ethanol-water solution). 30 Minutes after the coating, UV rays of 1.3-1.5 mW/cm^2 in strength was irradiated for 30 minutes by use of a fluorescent lamp of healthy light (TOSHIBA FL-20.cndot.SE) as a light source. 24 Hours after the irradiation, the reference section (coated with the solvent only) and the test section (coated with test compound solution) were observed respectively, and the erythrochromia (Δa value) on both reference section and test section were measured by use of a color difference meter (OFC-300A Type, mfd. by NIHON DENSHOKU KOGYO CO., LTD). The inhibitory ratio of skin erythema (sunburn) performed by the test compound was calculated from the following formula.
Inhibitory ratio of skin erythema (sunburn) (%)={1-[(C)/(D)]}×100
(C): Δa Value of test section of skin coated with test compound solution,
(D): Δa Value of reference section of skin coated with the solvent only, and
Δa value: difference of skin erythema on the portion irradiated with UV rays].

[2] = tested on: skin reaction (erythema and edema); assay: Skin sensitization test (Adjuvant and strip test), photosensitization; format: in vivo, Albino guinea pigs (Hertley strain, female); details: 3% test compound solution, open-coated; observed 24 hours and 48 hours; [(G)/(H)]×100
Source text: (4) Skin sensitization test [Adjuvant and strip test: J. Invest. Dermatol., Vol. 76, pp 498-501, (1981)]
This test was used as experimental model for evaluating the existence of toxicity of photosensitization to the skin performed by the test compounds.
(i) Procedure for inducing photosensitization
Albino guinea pigs (Hertley strain, female, age of 5-6 weeks) were used. Hairs of the nuchal area of the guinea pig were shaved, and designated the test sample coating section having 2×4 cm in size. At the four corners of the test sample coating section, 0.1 ml each of E-FCA (an emulsion consisting of the same volume each of Freund's complete adjuvant with sterilized distilled water) were intracutaneouly injected. The coating section was subjected to striping repeatedly by use of Cellophane tape until the section turned to slightly erythema, then 0.1 ml of test compound solution (aqueous or 50% ethanol-water solution) of 3% in concentration was open-coated on the section. 30 Minutes after the coating, UV rays of about 10 J/cm^2 in dosage was irradiated by use of a fluorescent lamp of healthy light (TOSHIBA FL-20S-BLB) as a light source. The above-mentioned procedure was carried out once a day, and continuously conducted for 5 days, provided that E-FCA was administered only on the first day.
(ii) Procedure for introducing sensitization
3 Weeks after the beginning of induction period of photosensitization, the covering hairs on the back of guinea pig were shaved, and determined a circular section, having 1.5 cm in diameter, for coating test samples, and 20 μl of test compound solution (aqueous or 50% ethanol-water solution) of 3% in concentration was open-coated on the section. The test sample coated section was observed 24 hours and 48 hours, and examined existences of skin reaction (erythema and edema). In case of skin reaction was appeared, then it was determined as positive reaction in skin sensitization which was defined as a positive ratio (%) calculated from the following formula.
Positive ratio (%)=[(G)/(H)]×100
(G): Number of positive reactions in skin sensitization and
(H): Number of total animal tests].

[3] = DPPH free radical extinction activity test; format: biochemical; details: relative to α-tocopherol (= 2); 5 μl of 10 mM test compound, 30° C., 30 minutes, pH 5.5 buffer, 517 nm
Experimental: (1) DPPH free radical extinction activity test
The test was conducted by procedures according to the method by Marsden S. Blois [Nature, Vol. […], 1199-1200, (1958)].
Into 0.5 ml of 200 mM of acetic acid buffer solution (pH 5.5) were added 0.5 ml of distilled water, 0.5 ml of ethanol and 5 μl of 10 mM of the test compound solution (an ethanol solution, a dimethylformamide solution or an aqueous solution), and stirred at 30° C. for 5 minutes. To this mixed solution was added 1.5 ml of an ethanol solution of 250 μM of 1,1-diphenyl-2-picrylhydrazyl (DPPH), this mixture was incubated at 30° C. for 30 minutes. After the incubation, the optical absorbance (at 517 nm) of this reaction mixture was measured, and the number of captured free radicals of DPPH was calculated from the ratio of optical absorbance of test compound and that of α-tocopherol (standard substance: the number of captured free radicals: 2) by the following formula: […]
Number of captured free radicals of DPPH performed by test
(A): optical absorbance of the test sample, and
(B): optical absorbance of α-tocopherol].

[4] = tested on: skin pigmentation; assay: Effect for preventing skin pigmentation caused by UV rays irradiation; format: in vivo, colored guinea pig (A-1 strain, female); details: 3% test compound solution, 14 days after UV irradiation; for (E): ΔL value of brightness of the skin coated with test compound solution (test section): 10 μl/cm^2; for Inhibitory ratio of skin pigmentation (%): {1-[(E)/(F)]}×100
Experimental: (3) Effect for preventing skin pigmentation caused by UV rays irradiation This is an experimental model of quantitative evaluation of effect for preventing skin pigmentation caused by UV rays irradiation performed by test compound. [Test was conducted by a modified method according to procedures of J. Dermatol. Vol. 17, pp. 595-598,(1990).] Hairs on the back of a colored guinea pig (A-1 strain, female, age of 8-10 weeks) were shaved and the body of guinea pig was fixed on a Bowlman cage, and predermined 2 sections of UV rays irradiation. […] The inhibitory ratio of the skin pigmentation (%) performed by the test compound was calculated from the following formula. […] [wherein (E): ΔL value of brightness of the skin coated with test compound solution (test section), (F): ΔL value of brightness of the skin coated the solvent (reference section), and ΔL value: difference of brightness of the skin between the portion without irradiated and the portion irradiated with UV rays].

[5] = assigned value of the standard α-tocopherol; cited from earlier work

Compound | (C): Δa value of test section of skin coated with test compound solution [1] | inhibition in vivo at 3 % [1] [%] | Positive ratio (%) [2] [%] | Number of captured free radicals of DPPH [3] | (E): ΔL value of brightness of the skin coated with test compound solution (test section) [4] | Inhibitory ratio of skin pigmentation (%) [4] [%] | Inhibitory ratio of skin erythema (%) [1] [%] | number of captured free radicals (standard substance) [5]
CCN(CC)Cc1cc(C)c2c(c1O)CCC(=O)N2 [Example 9, 5-Hydroxy-6-diethylaminomethyl-8-methyl-3,4-dihydro-2(1H)-quinolinone] | 4.69 ± 1.62 | 38 | 0 | 1 |  |  |  | 
CCN(CC)Cc1ccc2c(c1O)CCC(=O)N2 [Example 13, 6-diethylaminomethyl-5-hydroxy-3,4-dihydrocarbostyril] | 3.93 ± 0.92 | 42 | 0 | 1 |  |  |  | 
C=CCOc1cc(CN(C)C)c(O)c2c1NC(=O)CC2 [Example 18, 8-allyloxy-3,4-dihydro-5-hydroxy-6-dimethyl-aminomethyl-2(1H)-quinolinone hydrochloride] | 3.87 ± 2.45 | 51 | 0 | 1.5 | -3.53 ± 1.24 | 49 |  | 
Cl.O=c1ccc2c(CN3CCCC3)c(O)ccc2[nH]1 [Example 22, 6-hydroxy-5-(1-pyrrolidinyl)methyl-2(1H)-quinolinone hydrochloride] | 5.51 ± 2.32 | 37 | 0 | 1.5 |  |  |  | 
Cc1cc2c(c(CN3CCCC3)c1O)NC(=O)CC2 [Example 25] | 3.31 ± 2.00 | 64 | 0 | 1 | -5.02 ± 2.02 | 38 |  | 
C=CCOc1cc(CN2CCCCC2)c(O)c2c1NC(=O)CC2 [Example 28, 8-allyloxy-3,4-dihydro-5-hydroxy-6-(1-piperidinyl)methyl-2(1H)-quinolinonehydrochloride] | 1.13 ± 0.58 |  | 0 | 2 | -4.51 ± 1.87 | 43 | 78 | 
CCCOc1cc(CN2CCCCC2)c(O)c2c1NC(=O)CC2.Cl [Example 30, 3,4-dihydro-8-propyloxy-5-hydroxy-6-(1-piperidinyl)methyl-2(1H)-quinolinone hydrochloride] | 4.73 ± 1.94 | 40 | 0 | 2 | -3.40 ± 1.18 | 50 |  | 
C=CCOc1cc(CN2CCCCC2)c(O)c2c1N(CC=C(C)C)C(=O)CC2 [Example 32] | 2.17 ± 0.97 | 64 | 0 | 1 | -3.37 ± 2.36 | 42 |  | 
C=CCOc1cc(CN2CCCCC2)c(O)c2c1NC(=O)CC2 [Example 33] | 3.96 ± 1.02 |  | 0 | 1.5 | -2.61 ± 2.98 | 55 | 49 | 
COc1cc(CN(C)C)c(O)c2c1NC(=O)CC2.Cl [Example 35, 6-(dimethylaminomethyl)-3,4-dihydro-5-hydroxy-8-methoxy-2(1H)-quinolinone hydrochloride] | 3.61 ± 2.91 | 51 | 0 | 1.5 | -4.44 ± 2.17 | 35 |  | 
O=C1CCc2c(O)c(CN3CCCC3)cc(OC3CCCCO3)c2N1 (stereo not shown) [Example 47] | 0.88 ± 0.29 | 76 | 0 | 3.5 | -4.89 ± 1.24 | 38 |  | 
Cc1c(C)c2c(c(C)c1O)CCC(C)(CCCC(C)CCCC(C)CCCC(C)C)O2 (stereo not drawn) [α-tocopherol] |  |  |  |  |  |  |  | 2
